Tests used:
[1] = biological target: delta receptors (Homo sapiens, UniProt P41143); details: in vitro; cited from earlier work
[2] = biological target: μ opioid receptor (Homo sapiens, UniProt P35372); details: cited from earlier work
[3] = tested on: human osteoblasts; details: in vitro treatment; cited from earlier work
[4] = cited from earlier work
[5] = tested on: IL-1β; experiment: IL-1β level within the bone after sustained morphine infusion; type: in vivo, mice; details: sarcoma-induced
Text: (§1) The peripheral opioid antagonists according to the invention provide a conjunctive therapy for managing bone metabolism while opiates are in use. Specific data describing the metabolic effects of opiates on bone metabolism are provided in the examples.

[6] = tested on: sarcoma-induced bone loss; experiment: Murine bone cancer model (sarcoma cells injected into femur), radiographic bone loss, fracture and pain under sustained morphine infusion; type: in vivo, mice
[7] = tested on: osteoclasts; experiment: Osteoclast count by TRAP staining in metaphysis of distal femur; type: in vivo, mice
Text: Previous studies have shown that osteolytic cancers, such as the sarcoma cell line used in these studies, upregulate osteoclasts within the bone. To determine whether the enhanced morphine-induced bone loss is mediated through further upregulation of osteoclasts, osteoclasts were stained and counted within the metaphysis of the distal head of the femur using tartrate resistant acid phosphatase (TRAP) staining.

[8] = tested on: sarcoma cells; experiment: Tumor growth in vitro; type: cell-based
Text: as §1

[9] = drug-dependent mice; cited from earlier work
[10] = sustained morphine administration

Sequence of delta receptors (P41143 whole entry): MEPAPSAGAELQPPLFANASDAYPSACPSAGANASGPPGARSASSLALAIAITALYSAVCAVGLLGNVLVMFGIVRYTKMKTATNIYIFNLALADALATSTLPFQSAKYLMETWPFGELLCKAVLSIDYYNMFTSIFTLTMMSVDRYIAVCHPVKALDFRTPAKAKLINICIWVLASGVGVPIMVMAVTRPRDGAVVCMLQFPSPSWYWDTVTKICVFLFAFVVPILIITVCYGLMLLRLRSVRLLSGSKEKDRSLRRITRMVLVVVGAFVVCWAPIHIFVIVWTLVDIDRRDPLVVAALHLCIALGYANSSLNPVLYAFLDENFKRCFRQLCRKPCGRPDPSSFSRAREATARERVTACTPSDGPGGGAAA
Sequence of μ opioid receptor (P35372 whole entry, species assumed): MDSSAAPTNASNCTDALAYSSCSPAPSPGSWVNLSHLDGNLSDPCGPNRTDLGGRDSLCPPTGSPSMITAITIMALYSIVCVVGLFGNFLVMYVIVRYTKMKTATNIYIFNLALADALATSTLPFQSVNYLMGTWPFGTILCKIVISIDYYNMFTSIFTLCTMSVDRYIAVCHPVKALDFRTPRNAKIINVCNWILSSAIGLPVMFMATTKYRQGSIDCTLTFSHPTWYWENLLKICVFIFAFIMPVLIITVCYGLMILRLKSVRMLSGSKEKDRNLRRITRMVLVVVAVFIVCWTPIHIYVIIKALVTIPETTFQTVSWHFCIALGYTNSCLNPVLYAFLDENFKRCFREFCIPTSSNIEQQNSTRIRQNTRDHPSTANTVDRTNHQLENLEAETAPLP

**Q.** For `O=C1C(=Cc2ccccc2)C[C@@]2(O)[C@H]3Cc4ccc(O)c5c4[C@@]2(CCN3CC2CC2)[C@H]1O5` [BNTX, 7-benzylidenenaltrexone], which “type of activity at the delta receptor” value [1] is on record?
**A.** The value was “inverse agonist”.

**Q.** What about the “type of activity at the mu receptor” value [2] of the same compound?
**A.** Its value is “inverse agonist”.

**Q.** What does the source list for `O=C(O)Cc1ccccc1Nc1c(Cl)cccc1Cl` [Diclofenac]?
**A.** concentration giving a significant decrease of cell proliferation [3]: 6 micrograms/ml; therapeutic concentration in serum [4]: approximately 1.5 micrograms/ml

**Q.** What does the source list for `COc1cccc(C2(O)CCCCC2CN(C)C)c1` (centres unmarked) [Tramadol]?
**A.** concentration giving a significant decrease of cell proliferation [3]: greater than 20 micrograms/ml; therapeutic concentration in serum [4]: 0.25 micrograms/ml

**Q.** Which “IL-1β within the bone” value [5] does the source give for `CN1CC[C@]23c4c5ccc(O)c4O[C@H]2[C@@H](O)C=C[C@H]3[C@H]1C5` [morphine] here?
**A.** Its value is “upregulated”.

**Q.** What about the “sarcoma-induced bone loss (radiograph rating) vs saline infusion” value ([6]; 6 days after sarcoma injection) of the same compound?
**A.** Its value is “no difference between morphine or saline treated mice”.

**Q.** What about the “incidence of sarcoma-induced fracture vs saline infusion” value ([6]; 10 days and 12 days after sarcoma injection into the femur) of the same compound?
**A.** Its value is “doubled”.

**Q.** And the “sarcoma-induced bone loss (radiograph rating) vs saline infusion” value ([6]; 12 days after femoral sarcoma injection, sustained morphine infusion)?
**A.** Its value is “increased sarcoma-induced bone loss”.

**Q.** What about the “tumor burden in vivo” value ([6]; in vivo) of the same compound?
**A.** Its value is “did not alter”.

**Q.** What about the sarcoma-induced pain [6, 10] of the same compound?
**A.** The sarcoma-induced pain was “enhances sarcoma-induced pain”.

**Q.** And the time to fracture [6, 10]?
**A.** Its time to fracture is “accelerated time to fracture”.

**Q.** What about the “osteoclast TRAP staining vs saline” value ([7]; control animals (no sarcoma)) of the same compound?
**A.** The value was “no difference in osteoclast staining”.

**Q.** And the “osteoclast TRAP staining vs saline infusion” value ([7]; sarcoma treated animals, sustained morphine infusion)?
**A.** The value was “increased sarcoma-induced upregulation of osteoclasts”.

**Q.** And the “tumor growth in vitro” value [8]?
**A.** The value was “did not alter”.

**Q.** Which “withdrawal elicited, compared with naloxone” value [9] does the source give for CTAP here?
**A.** Its value is “significantly less withdrawal than naloxone”.

— patent US20070197573A1, “Compositions and methods in the treatment of bone metabolic disorders” (priority 2005, published 2007)
